Results taken from paper PMC12669040, “Tumour-specific STING agonist synthesis via a two-component prodrug system” (Nature Chemistry, 2025).
Where “and” joins values, the source holds several entries; their conditions need not be identical. Equal entries are not always repeated.

Assays:
[1] = Colorimetric alkylation rate constant assay with thiol N1; assay type: physicochemical; details: for remaining [A]: N1 from calibration curve (N1 in uM); for remaining [A] / remaining [B]: in µM
[2] = Colorimetric alkylation rate constant assay with TNB^2− as non-specific thiol; assay type: physicochemical; set-up: second-order: unit not given here; details: for remaining [B]: in µM
[3] = Time 2891 sec, [B]0 = 250, Replicates 1-3
[4] = Time 3071 sec, [B]0 = 250, Replicates 1-3
[5] = Time 3252 sec, [B]0 = 250, Replicates 1-3
[6] = Time 3433 sec, [B]0 = 250, Replicates 1-3
[7] = Time 3613 sec, [B]0 = 250, Replicates 1-3

For `O=C(CCl)Nc1ccccc1` [Compound C2], the “remaining [A]” value ([1]; Replicate 1, time 576 sec) was 80.4651, the “remaining [B]” value ([1]; Replicate 1, time 576 sec, [B]0 = 250) was 226.345 and the second-order ([1]; Replicate 1, time 576 sec, second-order plot value) was 0.001085. The “remaining [A]” value ([1]; Replicate 1, time 606 sec) was 79.6386, the “remaining [B]” value ([1]; Replicate 1, time 606 sec, [B]0 = 250) was 225.519 and the second-order ([1]; Replicate 1, time 606 sec, second-order plot value) was 0.001131. The “remaining [A]” value ([1]; Replicate 2, time 576 sec) was 80.4092, the “remaining [B]” value ([1]; Replicate 2, time 576 sec, [B]0=250) was 227.268 and the second-order ([1]; Replicate 2, time 576 sec, second-order plot value) was 0.001046. For the same compound, the “remaining [A]” value ([1]; Replicate 2, time 606 sec) was 79.1621, the “remaining [B]” value ([1]; Replicate 2, time 606 sec, [B]0=250) was 226.02 and the second-order ([1]; Replicate 2, time 606 sec, second-order plot value) was 0.001115. For the same compound, the “remaining [A]” value ([1]; Replicate 3, time 576 sec) was 81.6859, the “remaining [B]” value ([1]; Replicate 3, time 576 sec, [B]0=250) was 227.139 and the second-order ([1]; Replicate 3, time 576 sec, second-order plot value) was 0.001037. The “remaining [A]” value ([1]; Replicate 3, time 606 sec) was 80.8202, the “remaining [B]” value ([1]; Replicate 3, time 606 sec, [B]0=250) was 226.273 and the second-order ([1]; Replicate 3, time 606 sec, second-order plot value) was 0.001084. For the same compound, the “remaining [B]” value ([1]; time 0 sec, [B]0 = 250, replicates 1-3) was 247.836 and 246.58 and 246.712, the second-order ([1]; time 0 sec, replicates 1-3) was 0.0001305 and 8.4046e-5 and 0.0001345 and the “remaining [B]” value ([1]; time 30 sec, [B]0 = 250, replicates 1-3) was 246.591 and 244.557 and 245.38. The second-order ([1]; time 30 sec, replicates 1-3) was 0.000185 and 0.0001335 and 0.0002172, the “remaining [B]” value ([1]; time 60 sec, [B]0 = 250, replicates 1-3) was 244.968 and 243.73 and 244.048 and the second-order ([1]; time 60 sec, replicates 1-3) was 0.0002407 and 0.0001994 and 0.0002516. For the same compound, the “remaining [B]” value ([1]; time 91 sec, [B]0 = 250, replicates 1-3) was 243.804 and 242.562 and 242.8, the second-order ([1]; time 91 sec, replicates 1-3) was 0.0002937 and 0.0002475 and 0.000301 and the “remaining [B]” value ([1]; time 121 sec, [B]0 = 250, replicates 1-3) was 243.047 and 241.251 and 241.752. For the same compound, the second-order ([1]; time 121 sec, replicates 1-3) was 0.0003391 and 0.0002792 and 0.0003575, the “remaining [B]” value ([1]; time 151 sec, [B]0 = 250, replicates 1-3) was 242.371 and 240.196 and 240.873 and the second-order ([1]; time 151 sec, replicates 1-3) was 0.0003777 and 0.0003079 and 0.0004037. The “remaining [B]” value ([1]; time 182 sec, [B]0 = 250, replicates 1-3) was 241.478 and 239.142 and 240.023, the second-order ([1]; time 182 sec, replicates 1-3) was 0.0004154 and 0.0003461 and 0.0004506 and the “remaining [B]” value ([1]; time 212 sec, [B]0 = 250, replicates 1-3) was 240.882 and 238.087 and 239.314. The second-order ([1]; time 212 sec, replicates 1-3) was 0.0004473 and 0.0003719 and 0.0004982, the “remaining [B]” value ([1]; time 242 sec, [B]0 = 250, replicates 1-3) was 239.746 and 237.004 and 238.605 and the second-order ([1]; time 242 sec, replicates 1-3) was 0.0004795 and 0.0004218 and 0.000548. The “remaining [B]” value ([1]; time 273 sec, [B]0 = 250, replicates 1-3) was 238.772 and 235.921 and 237.868, the second-order ([1]; time 273 sec, replicates 1-3) was 0.0005133 and 0.0004652 and 0.0005985 and the “remaining [B]” value ([1]; time 303 sec, [B]0 = 250, replicates 1-3) was 237.095 and 234.981 and 237.103. The second-order ([1]; time 303 sec, replicates 1-3) was 0.0005489 and 0.0005414 and 0.0006431, the “remaining [B]” value ([1]; time 333 sec, [B]0 = 250, replicates 1-3) was 235.255 and 233.898 and 236.026 and the second-order ([1]; time 333 sec, replicates 1-3) was 0.0005997 and 0.0006273 and 0.0006953. The “remaining [B]” value ([1]; time 364 sec, [B]0 = 250, replicates 1-3) was 234.038 and 233.014 and 234.41, the second-order ([1]; time 364 sec, replicates 1-3) was 0.0006774 and 0.0006854 and 0.0007385 and the “remaining [B]” value ([1]; time 394 sec, [B]0 = 250, replicates 1-3) was 232.874 and 231.988 and 233.73. For the same compound, the second-order ([1]; time 394 sec, replicates 1-3) was 0.0007107 and 0.0007421 and 0.0007895, the “remaining [B]” value ([1]; time 424 sec, [B]0 = 250, replicates 1-3) was 231.738 and 230.934 and 232.256 and the second-order ([1]; time 424 sec, replicates 1-3) was 0.0007842 and 0.0007984 and 0.0008427. The “remaining [B]” value ([1]; time 454 sec, [B]0 = 250, replicates 1-3) was 230.764 and 230.107 and 231.378, the second-order ([1]; time 454 sec, replicates 1-3) was 0.0008288 and 0.0008475 and 0.000885 and the “remaining [B]” value ([1]; time 485 sec, [B]0 = 250, replicates 1-3) was 229.871 and 229.167 and 230.13. The “remaining [B]” value ([1]; time 515 sec, [B]0 = 250, replicates 1-3) was 228.978 and 228.226 and 228.94, the second-order ([1]; time 515 sec, replicates 1-3) was 0.0009559 and 0.0009395 and 0.0009836 and the “remaining [B]” value ([1]; time 545 sec, [B]0 = 250, replicates 1-3) was 227.95 and 227.314 and 227.948. The second-order ([1]; time 545 sec, replicates 1-3) was 0.001009 and 0.0009937 and 0.001032, the “remaining [B]” value ([2]; Replicate 1, 723 sec, [B]0 = 250) was 243.908 and the “remaining [B]” value ([2]; Replicate 1, 903 sec, [B]0 = 250) was 243.568. For the same compound, the “remaining [B]” value ([2]; Replicate 1, 1084 sec, [B]0 = 250) was 243.228, the “remaining [B]” value ([2]; Replicate 1, 1265 sec, [B]0 = 250) was 242.9 and the “remaining [B]” value ([2]; Replicate 1, 1445 sec, [B]0 = 250) was 242.598. The “remaining [B]” value ([2]; Replicate 1, 1626 sec, [B]0 = 250) was 242.232, the “remaining [B]” value ([2]; Replicate 1, 1806 sec, [B]0 = 250) was 241.905 and the “remaining [B]” value ([2]; Replicate 1, 1988 sec, [B]0 = 250) was 241.539. For the same compound, the “remaining [B]” value ([2]; Replicate 1, 2168 sec, [B]0 = 250) was 241.224, the “remaining [B]” value ([2]; Replicate 1, 2349 sec, [B]0 = 250) was 240.884 and the “remaining [B]” value ([2]; Replicate 1, 2530 sec, [B]0 = 250) was 240.607. For the same compound, the “remaining [B]” value ([2]; Replicate 1, 2710 sec, [B]0 = 250) was 240.229, the “remaining [B]” value ([2]; Replicate 2, 542 sec, [B]0=250) was 245.363 and the “remaining [B]” value ([2]; Replicate 2, 723 sec, [B]0=250) was 245.048. For the same compound, the “remaining [B]” value ([2]; Replicate 2, 903 sec, [B]0=250) was 244.733, the “remaining [B]” value ([2]; Replicate 2, 1084 sec, [B]0=250) was 244.393 and the “remaining [B]” value ([2]; Replicate 2, 1265 sec, [B]0=250) was 244.09. The “remaining [B]” value ([2]; Replicate 2, 1445 sec, [B]0=250) was 243.737, the “remaining [B]” value ([2]; Replicate 2, 1626 sec, [B]0=250) was 243.435 and the “remaining [B]” value ([2]; Replicate 2, 1806 sec, [B]0=250) was 243.107. For the same compound, the “remaining [B]” value ([2]; Replicate 2, 1988 sec, [B]0=250) was 242.78, the “remaining [B]” value ([2]; Replicate 2, 2168 sec, [B]0=250) was 242.452 and the “remaining [B]” value ([2]; Replicate 2, 2349 sec, [B]0=250) was 242.137. The “remaining [B]” value ([2]; Replicate 2, 2530 sec, [B]0=250) was 241.772, the “remaining [B]” value ([2]; Replicate 2, 2710 sec, [B]0=250) was 241.469 and the “remaining [B]” value ([2]; Replicate 3, 723 sec, [B]0=250) was 245.156. For the same compound, the “remaining [B]” value ([2]; Replicate 3, 903 sec, [B]0=250) was 244.866, the “remaining [B]” value ([2]; Replicate 3, 1084 sec, [B]0=250) was 244.475 and the “remaining [B]” value ([2]; Replicate 3, 1265 sec, [B]0=250) was 244.311. The “remaining [B]” value ([2]; Replicate 3, 1445 sec, [B]0=250) was 243.732, the “remaining [B]” value ([2]; Replicate 3, 1626 sec, [B]0=250) was 243.593 and the “remaining [B]” value ([2]; Replicate 3, 1806 sec, [B]0=250) was 243.165. For the same compound, the “remaining [B]” value ([2]; Replicate 3, 1988 sec, [B]0=250) was 242.824, the “remaining [B]” value ([2]; Replicate 3, 2168 sec, [B]0=250) was 242.61 and the “remaining [B]” value ([2]; Replicate 3, 2349 sec, [B]0=250) was 242.232. For the same compound, the “remaining [B]” value ([2]; Replicate 3, 2530 sec, [B]0=250) was 241.917, the “remaining [B]” value ([2]; Replicate 3, 2710 sec, [B]0=250) was 241.653 and the second-order [2, 3] was 0.0003773 and 0.0003667 and 0.0004313. The “remaining [B]” value [2, 3] was 241.388 and 239.977 and 241.154, the second-order [2, 4] was 0.0003928 and 0.0003885 and 0.000446 and the “remaining [B]” value [2, 4] was 240.909 and 239.662 and 240.814. For the same compound, the second-order [2, 5] was 0.0004061 and 0.0003977 and 0.0004618, the “remaining [B]” value [2, 5] was 240.708 and 239.321 and 240.524 and the second-order [2, 6] was 0.0004218 and 0.000411 and 0.0004772. For the same compound, the “remaining [B]” value [2, 6] was 240.418 and 238.994 and 240.184, the second-order [2, 7] was 0.0004369 and 0.0004267 and 0.0004915 and the “remaining [B]” value [2, 7] was 240.077. For the same compound, the second-order ([2]; Time 3794 sec, [B]0 = 250, Replicates 1-3) was 0.0004533 and 0.0004448 and 0.000507, the second-order ([2]; Time 3974 sec, [B]0 = 250, Replicates 1-3) was 0.0004675 and 0.0004536 and 0.0005214 and the second-order ([2]; Time 4155 sec, [B]0 = 250, Replicates 1-3) was 0.0004823 and 0.0004725 and 0.0005334. The second-order ([2]; Time 4336 sec, [B]0 = 250, Replicates 1-3) was 0.0004965 and 0.0004915 and 0.0005528, the second-order ([2]; Time 4516 sec, [B]0 = 250, Replicates 1-3) was 0.0005127 and 0.0005034 and 0.0005668 and the second-order ([2]; Time 4697 sec, [B]0 = 250, Replicates 1-3) was 0.0005253 and 0.000516 and 0.0005808. For the same compound, the second-order ([2]; Time 4878 sec, [B]0 = 250, Replicates 1-3) was 0.000541 and 0.0005322 and 0.0005962, the second-order ([2]; Time 5058 sec, [B]0 = 250, Replicates 1-3) was 0.0005592 and 0.0005485 and 0.0006085 and the second-order ([2]; Time 5239 sec, [B]0 = 250, Replicates 1-3) was 0.0005708 and 0.0005619 and 0.0006247. For the same compound, the second-order ([2]; Time 5419 sec, [B]0 = 250, Replicates 1-3) was 0.0005891 and 0.0005723 and 0.0006371, the second-order ([2]; Time 5600 sec, [B]0 = 250, Replicates 1-3) was 0.0006027 and 0.0005925 and 0.000654 and the second-order ([2]; Time 5781 sec, [B]0 = 250, Replicates 1-3) was 0.0006182 and 0.000611 and 0.0006672. For the same compound, the second-order ([2]; Time 5961 sec, [B]0 = 250, Replicates 1-3) was 0.0006343 and 0.000624 and 0.0006855.
